Structures can show the parent of a compound that is named as a salt. Where two headings read alike, the source gives them in different places.
Legend:
GL26 glioma = test: Survival of mice with intracranial GL26 glioma; assay type: in vivo; settings: for survival, C57BL/6 (WT) relative to nu/nu mice: 2.7 mg/kg days 7-9 after GL26 implantation, log-rank; for survival: 2.7 mg/kg i.v. days 7-9 after intracranial GL26 implantation, 2.7 mg/kg
Method: FIG. 1 depicts T cell-induced chemosensitization of murine glioma in accordance with an embodiment of the present invention. Fifty thousand (50,000) GL26 tumor cells in […] 1% methylcellulose were implanted i.c. into anesthetized female C57BL/6J (black lines) or nu/nu (gray lines) mice aged 6-8 weeks using a stereotactic rodent frame. Injection was 1 mm posterior and 2.5 mm lateral to the junction of the coronal and saggital sutures (bregma), at a depth of 2 mm. Vaccinated mice received 2, subcutaneous injections of 2×106 tumor lysate-pulsed, irradiated cultured DC2.4 dendritic cells in […] sterile PBS as vaccine on day 3 and 7 post tumor implantation, and a chemotherapeutic drug (dosage: 2.7 mg/kg minoxidil sulfate) was administered on days 7, 8, and 9 post tumor implantation. […] Survival differences were assessed by log-rank statistics.
FIGS. 2a and 2b depicts survival rates of mice treated with minxodil sulfate in accordance with an embodiment of the present invention. Survival of Nude (nu; gray) and C57BL/6 (WT) mice with (solid black) or without (dotted black) vaccination, treated 7-9 days after intracranial GL26 glioma implantation with vehicle (DMSO) or minoxidil sulfate (MS, 2.7 mg/kg in 50 μl, i.v.). Vaccinated mice were injected subcutaneously with […] tumor lysate-pulsed syngeneic DC2.4 dendritic cells 3 and 7 days after GL26 implantation.
GL26 glioma cells were implanted intracranially into T cell-deficient (nude) or syngeneic wild-type (C57BI/6) mice, which were treated with a chemotherapeutic drug alone or with vaccination using GL26 lysate-pulsed DC2.4 dendritic cells. […] (FIG. 1).
Chemosensitivity was modeled by growth of the GL26 glioma in syngeneic C57BL/6 (B6), vaccinated B6, and T cell-deficient nude mice. Tumor implantation was followed by chemotherapeutic drug treatment and/or DC vaccination.

HT-29 human colon cancer = test: WST-1 cytotoxic screening, HT-29 Colon Cancer; settings: for EC50: read-out: Effective concentration for 50% cell death (EC50)
Method: (§1) Thus, the inventors examined the in vitro effect of several ATP-dependent potassium channel agonists on cell viability in a wide range of tumor and normal cells.
(§2) Table 1 depicts the in vitro effect of KATP channel agonists on cell viability in a range of tumor and normal cells. The cytotoxic screening assay (WST-1 assay; Roche Diagnostics) results shown are the effective KATP channel agonist concentration (μM) required for 50% cell death (EC50) after exposure to the same for 24 hours. Indicated percentages are the percent viable cells remaining after treatment with 1000 μM of KATP channel agonists.

C6 rat glioma = test: WST-1 cytotoxic screening, C6 Glioma; settings: for EC50: 24 h, read-out: Effective concentration for 50% cell death (EC50)
Method: as §1, §2

MDA-231 Breast Cancer = test: WST-1 cytotoxic screening, MDA-231 Breast Cancer; assay type: cell-based; settings: read-out: Effective concentration for 50% cell death (EC50)
Method: as §1, §2

9L Glioma = test: WST-1 cytotoxic screening, 9L Glioma; assay type: cell-based; settings: for EC50: treatment for 24 hours, read-out: Effective concentration for 50% cell death (EC50)
Method: as §1, §2

CRL5904 NSC Lung Cancer = test: WST-1 cytotoxic screening, CRL5904 NSC Lung Cancer; settings: for EC50: read-out: Effective concentration for 50% cell death (EC50); for viability at 1000 µM: read-out: percentage of viable cells remaining
Method: as §1, §2

DNTC-1 Astrocytes = test: WST-1 cytotoxic screening, DNTC-1 Astrocytes; assay type: cell-based; settings: Astrocyte, treatment for 24 hours, read-out: Effective concentration for 50% cell death (EC50)
Method: as §1, §2

unmodified GL26 cells = test: GL26 drug cytotoxicity screens; assay type: cell-based, murine; settings: drug 125-1000 μM, read-out: EC50 (concentrations giving 50% killing)
Method: GL26 drug cytotoxicity (EC50, concentrations giving 50% killing) screens were performed with the results depicted in Table 2.

GL-26 Glioma = test: cells; settings: read-out: Effective concentration for 50% cell death (EC50)
Method: as §1, §2

[1] = WST-1 cytotoxic screening, HBMVEC Endothelial; settings: human, HBMVEC endothelial cells (non-cancer)
Method: as §1, §2

HBMVEC Endothelial = test: WST-1 cytotoxic screening, HBMVEC Endothelial; settings: read-out: Effective concentration for 50% cell death (EC50)
Method: as §1, §2

RG2 Glioma = test: WST-1 cytotoxic screening, RG2 Glioma; settings: for EC50: read-out: Effective concentration for 50% cell death (EC50)
Method: as §1, §2

U87 human glioma = test: WST-1 cytotoxic screening, U87 Glioma; settings: for EC50: read-out: Effective concentration for 50% cell death (EC50)
Method: as §1, §2

[2] = Homo sapiens, MDA-MB-231, treatment for 24 hours

SMILES: Nc1cc(N2CCCCC2)nc(N)[n+]1OS(=O)(=O)[O-] [Minoxidil Sulfate, minoxidil sulfate]
- survival, C57BL/6 (WT) relative to nu/nu mice (GL26 glioma): increased survival
- survival, C57BL/6 (WT) relative to nu/nu mice (GL26 glioma; listed as MS): significantly increased
- survival (GL26 glioma; T cell-deficient nude (nu/nu) hosts): not in nude hosts
- survival (GL26 glioma; T cell-deficient nude (nu/nu) hosts, listed as MS): increased survival only in WT hosts
- survival (GL26 glioma; wild-type C57BL/6 hosts, with or without DC vaccination): prolonged survival in B6
- survival (GL26 glioma; wild-type C57BL/6 hosts, with or without DC vaccination, listed as MS): increased survival
- survival (GL26 glioma; wild-type C57BL/6 hosts, with or without DC vaccination, listed as Minoxidil sulfate): enhanced survival
- effectiveness as a cytotoxic agent (HT-29 human colon cancer; HT-29 human colon cancer, WST-1 assay): highly effective
- EC50 (HT-29 human colon cancer; Homo sapiens, HT-29, 24 h): 360 µM
- effectiveness as a cytotoxic agent (C6 rat glioma; C6 rat glioma, WST-1 assay): highly effective
- EC50 (C6 rat glioma; Rattus norvegicus, C6 glioma): 130 µM
- EC50 (MDA-231 Breast Cancer; [2]): 930 µM
- viability at 1000 µM (9L Glioma; after treatment with 1000 μM, read-out: percentage of viable cells remaining): 51%
- EC50 (9L Glioma): > 1000 µM
- EC50 (CRL5904 NSC Lung Cancer; 24 h): > 1000 µM
- viability at 1000 µM (CRL5904 NSC Lung Cancer): 89%
- EC50 (DNTC-1 Astrocytes): 110 µM
- EC50 (unmodified GL26 cells; Mus musculus): 595 µM
- EC50 (GL-26 Glioma; Mus musculus, GL26, 24 h): 595 µM
- viability at 24 h, 1000 μM [1]: 84%
- EC50 (HBMVEC Endothelial; 24 h): > 1000 µM
- EC50 (RG2 Glioma; Rattus norvegicus, RG2, 24 h): 810 µM
- EC50 (U87 human glioma; Homo sapiens, U-87 MG, 24 h): 308 µM
- effectiveness as a cytotoxic agent (U87 human glioma; U87 human glioma, WST-1 assay): highly effective

SMILES: N.N.O=C([O-])C1(C(=O)[O-])CCC1.[Pt+2] [Carboplatin]
- EC50 (unmodified GL26 cells): 310 µM

SMILES: CN(Cc1cnc2nc(N)nc(N)c2n1)c1ccc(C(=O)N[C@@H](CCC(=O)O)C(=O)O)cc1 [Methotrexate]
- EC50 (unmodified GL26 cells; Mus musculus): > 1000 µM

SMILES: CC(N/C(=N\C#N)Nc1ccncc1)C(C)(C)C (stereo not drawn) [Pinacidil, pinacidil]
- EC50 (HT-29 human colon cancer; Homo sapiens, HT-29, 24 h): > 1000 µM
- viability at 1000 µM (HT-29 human colon cancer; Homo sapiens, HT-29, read-out: percentage of viable cells remaining): 74%
- EC50 (C6 rat glioma; Rattus norvegicus, C6 glioma): > 1000 µM
- viability at 1000 µM (C6 rat glioma; Rattus norvegicus, C6 glioma, read-out: percentage of viable cells remaining): 93%
- EC50 (MDA-231 Breast Cancer; [2]): 220 µM
- EC50 (9L Glioma): 790 µM
- EC50 (CRL5904 NSC Lung Cancer; 24 h): > 1000 µM
- viability at 1000 µM (CRL5904 NSC Lung Cancer): 79.5%
- EC50 (unmodified GL26 cells; Mus musculus): 210 µM
- EC50 (GL-26 Glioma; Mus musculus, GL26, 24 h): 210 µM
- viability at 24 h, 1000 μM [1]: 106%
- EC50 (HBMVEC Endothelial; 24 h): > 1000 µM
- EC50 (RG2 Glioma; Rattus norvegicus, RG2, 24 h): > 1000 µM
- viability at 1000 µM (RG2 Glioma; Rattus norvegicus, RG2, read-out: percentage of viable cells remaining): 69%
- EC50 (U87 human glioma; Homo sapiens, U-87 MG, 24 h): > 1000 µM
- viability at 1000 µM (U87 human glioma; Homo sapiens, U-87 MG, read-out: percentage of viable cells remaining): 77%

SMILES: Cn1nnc2c(C(N)=O)ncn2c1=O [Temodar]
- EC50 (unmodified GL26 cells; Mus musculus): > 1000 µM

SMILES: CC1(C)Oc2ccc(S(=O)(=O)Nc3ccccc3)cc2[C@@H](N2CCCCC2=O)[C@@H]1O [KCO912]
- EC50 (HT-29 human colon cancer; HT-29 Colon Cancer, treatment for 24 hours): > 1000 µM
- EC50 (MDA-231 Breast Cancer; treatment for 24 hours): 126 µM
- EC50 (CRL5904 NSC Lung Cancer; CRL5904 NSC Lung Cancer, treatment for 24 hours): > 1000 µM
- EC50 (GL-26 Glioma; GL-26 Glioma, treatment for 24 hours): > 1000 µM
- EC50 (HBMVEC Endothelial; HBMVEC Endothelial, treatment for 24 hours): > 1000 µM
- EC50 (RG2 Glioma; RG2 Glioma, treatment for 24 hours): > 1000 µM
- EC50 (U87 human glioma; U87 Glioma, treatment for 24 hours): > 1000 µM

SMILES: COc1cccc2c1C(=O)c1c(O)c3c(c(O)c1C2=O)C[C@@](O)(C(=O)CO)C[C@@H]3O[C@H]1C[C@H](N)[C@H](O)[C@H](C)O1 [Adriamycin]
- EC50 (unmodified GL26 cells; Mus musculus): < 125 µM

Source: US7705010B2, “Use of minoxidil sulfate as an anti-tumor drug” (Cedars-Sinai Medical Center, priority 2005, dated 2010)
